Experimental data reported in patent US10251943B2, “PLIF multimeric peptides and uses thereof” (Ramot at Tel-Aviv University Ltd., priority 2012, dated 2019).
“Also recorded” adds a separate entry of the source. Bridges are numbered along the chain shown (N, C = ends). Roman numbers before positions name the chains, in order. Where no end group is shown, it is not given here.

Key:
[1] = system: human T cells (HDMAR); experiment: Binding to HDMAR human T cell line (detected by anti-C24D IgG); assay type: cell-based
[2] = system: MCF-7 human breast cancer cells; experiment: MCF-7 tumor development in nude mice transfused with human PBMC; assay type: in vivo, Athymic BALB/c nude mice
Procedure: Athymic BALB/c nude mice were purchased from Harlan Laboratories Ltd. Mice were inoculated subcutaneously (s.c.) with MCF-7 human breast cancer cells (6×10^6), in the presence of an estrogen source (0.72 mg). The slow-release pellets (60-day release) were implanted s.c. into the cervical scapular space.
Buffy coats from blood bank donors were layered onto Lymphoprep solution (Nycomed, Oslo, Norway) and spun at 2000 rpm for 20 minutes. The interface layer was collected, washed twice, counted, and resuspended in PBS (pH 7.4) to the desired cell concentration. Human PBMC (50×10^6/0.5 ml) were injected intravenously after transplantation of MCF-7 tumor cells as described above.
In each experiment, mice were divided into groups of five. C24D dissolved in PBS pH 7.2 was injected i.p. to each mouse daily, at an optimal dose of 60 μg/0.2 ml. Control mice received daily injections of PBS.
Tumors were excised, measured, and fixed in phosphate-buffer formalin (pH 7.0) from which paraffin embedded blocks were prepared.
Four-micron tissue sections were cut from paraffin-embedded blocks and mounted on coated super frost plus slides. They were deparaffinized in xylene, and rehydrated with graded alcohols, rinsed in H2O, and then incubated in 3% H2O2 for 10 minutes and washed in H2O.
For antigen unmasking, the sections were heated in 10 mM of sodium citrate buffer (pH 6.0) for 10 minutes in microwaves or pressure chambers, depending on the manufacturer's instructions, and then cooled at room temperature for 20 minutes. Slides were washed in H2O and in PBS buffer for 5 minutes.
Slides were incubated in normal serum for 10 minutes from a kit (Zymed Laboratories, San Francisco, Calif.). For immunohistochemical staining, performed manually, slides were incubated with primary antibodies at previously determined optimal concentrations, for 60 minutes at room temperature, as summarized in Table 4, herein below.
Slides were washed in H2O and in PBS buffer for 5 minutes and further incubated for 10 minutes with a biothylated second antibody (Zymed Laboratories, San Francisco, Calif.), followed by PBS. […]

[3] = system: T47D cells; experiment: T47D and PBMC co-culture in vitro; assay type: cell-based, human
Procedure: Human ductal breast epithelial tumor cell line (T47D) was maintained in RPMI-1640 medium supplemented with 10% fetal calf serum.
(§1) Buffy coats from blood bank donors were layered onto Lymphoprep solution (Nycomed, Oslo, Norway) and spun at 2000 rpm for 20 minutes. The interface layer was collected, washed twice, counted, and resuspended in PBS; pH 7.4 to the desired cell concentration.
T47D was maintained in RPMI+FCS 10%. 1 day before the start of the experiment, the medium was replaced with RPMI+AB human serum 10%. PBMCs (1×10^6) were added to T47D (0.1×10^6) at a final volume 1 ml into 24-well plates. The cells were treated with C24D (30 μg/ml) at 0, 24 and 48 hours. The cells without treatment were used as a control. Plates were washed, fixed for 1 hour with 4% formaldehyde solution and stained with Giemsa for microscopic evaluation on experimental days 1, 5, and 8.
After five days of primary culture with T47D and C24D, PBMCs (1 million) were added to fresh T47D (0.1 million) at a final volume 1 ml into 24-well plates. The cells were treated with C24D (30 μg/ml) at 0, 24 and 48 hours. After 4 days of culture, the cells were examined. […] The ratio between T47D and PBMCs was 1:10. Two days after incubation the cells were examined as illustrated in FIGS. 20A-B.

[4] = system: MCF-7 human breast cancer cells; experiment: MCF-7 and PBMC co-culture in vitro; assay type: cell-based
Procedure: The MCF-7 human breast carcinoma cell line was maintained in monolayer cultures in RPMI-1640 medium supplemented with 10% fetal calf serum. For passages, confluent monolayer cultures were trypsinized with trypsin/EDTA solution (0.25%/0.05%, respectively), washed once, and seeded in culture medium.
as §1
MCF-7 was maintained in RPMI+fetal calf serum (FCS) 10%. 1 day before the experimental start, the medium was replaced with RPMI+human AB serum 10%. PBMC (1×10^6) were added to MCF-7 (0.1×10^6) at a final volume of 1 ml dispensed into 24-well plates. The cells were treated with C24D 30 μg/ml at 0, 24 and 48 hours. The cells without treatment were used as a control. Plates were washed, fixed for 1 hour with 4% formaldehyde solution and stained with Giemsa for microscopic evaluation on experimental days 1, 5, and 8.
PBMC were removed from the following cell cultures: a) non-treated control MCF-7+PBMC, b) control (only PBMC cultured with C24D), and c) C24D-treated MCF-7+PBMC. All were transferred to new untreated MCF-7 cell monolayer cultures.

[5] = system: C48 receptor on human T cells; experiment: Inhibition of C48 binding to HDMAR human T cells (detected by anti-C48 IgG-FITC); assay type: cell-based; settings: pre-incubation of HDMAR T cells with different concentrations
[6] = system: human PBMC activated with OKT3 MoAb; experiment: Cell stimulation and cytokine production (ELISA of supernatants); assay type: cell-based; settings: for Level of INF-γ: vs control cultures; for Level of IL-10: vs control cells
Procedure: Peripheral blood mononuclear cells (PBMC) at 2×10^6 in 1 ml of 5% human serum/RPMI-1640 were cultured in a 10 ml round-bottom tube, treated with C48 (2 μg/ml), C24D (10 μg/ml), or non-treated. Subsequently, these cultures were stimulated with OKT3 MoAb (100 ng/ml) or non-stimulated. Supernatants were collected at 24, and 72 hours for analysis of IL-10 and other cytokines as indicated in each experiment.
The ELISA kits for the human cytokines TNF-α, IL-10 and IFN-γ were purchased from DPC, and R&D Systems, USA. These kits were used to quantify the indicated cytokines production in the supernatants, according to the manufacturer's instructions.
as §1

[7] = system: human macrophages; experiment: Binding to the surface of human macrophages (FITC-labelled antibody detection); assay type: cell-based; settings: detected by mouse anti-C24D IgG-FITC and rabbit anti-C48 IgG-FITC
[8] = system: pregnancy development; settings: vaccination of mice prior to mating; cited from earlier work

Row | Substance | Binding to the surface of human T cells (HDMAR) [1] | Tumor growth ([2]; Nude mice transfused with human lymphocytes and engrafted with MCF-7, vs PBS) | Mean tumor volume ([2]; after 19 days, daily i.p. 60 μg, nude mice with MCF-7 and human PBMC) [mm^3] | Tumoral necrosis (histochemical analysis) ([2]; tumors removed from treated mice vs control) | T47D tumor cell lysis ([3]; 7 days of incubation with C24D and PBMCs) | Cytotoxicity on secondary T47D culture ([3]; PBMCs from 5-day primary culture added to fresh T47D, C24D 30 μg/ml, 4 days) | Lysis of T47D cancer cells ([3]; T47D and PBMC (1:10) cultured 5 days at 37° C.) | MCF-7 cell monolayer lysis (Giemsa staining) ([4]; MCF7 incubated with PBMC for 5 days) | Lysis of MCF-7 cancer cells ([4]; MCF-7 and PBMC (1:10) cultured 8 days at 37° C., C24D 30 μg/ml) | Cytotoxic effect and growth inhibition of MCF-7 cells ([4]; MCF-7 cultured with human PBMC for 5-8 days) | Cytotoxicity of transferred PBMC on secondary untreated MCF-7 culture ([4]; PBMC removed from C24D-treated MCF-7+PBMC cultures) | Inhibition of the binding of C48 to T cells [5] | Level of INF-γ in the presence of C48 ([6]; 72 hours, together with C48) | Level of INF-γ ([6]; 72 hours) | Level of IL-10 when added together with C48 ([6]; culture together with C48) | Level of IL-10 [6] | Binding to the surface of human macrophages [7] | Pregnancy development [8]
1 | C24-48M: monomeric synthetic polypeptide comprising the C48 terminal amino acids (aa) 24-48 (HHLLRPRRRKRPHSIPTPILIFRSP) [reference compound] | does not | – | – | – | – | – | – | – | – | – | – | – | – | – | – | – | – | –
2 | C24D: covalently linked dimer of identical polypeptide chains, each SEQ ID NO: 1 plus N-terminal Cysteine and Glycine; SEQ ID NO: 102 (chain 1 CGHHLLRPRRRKRPHSIPTPILIFRSP; chain 2 CGHHLLRPRRRKRPHSIPTPILIFRSP; disulfide I:1-II:1) | bind similarly to the surface of human T cells; also recorded: binds to the surface of human T cells | inhibited significantly the tumor growth; also recorded: tumor growth inhibition and cytotoxicity | 42.5±14 | Large areas of tumoral necrosis | An increase in tumor cell lysis | cytotoxic effect | resulted in lysis of the cancer cells | monolayer lysis | resulted in lysis of the cancer cells | cytotoxic effect and tumor cell growth inhibition | cytotoxic to the tumor cells | inhibits the binding of C48 to T cells | increased significantly | increased significantly; also recorded: high levels of INF-γ | decreased the high level of IL-10 | did not increase the level of IL-10 | – | –
3 | C48: subcloned recombinant C-terminal 48 amino acids of PLIF, its bioactive domain (SEQ ID NO: 100) (FPSPISPSPSCWHHYTTNRPQPQHHLLRPRRRKRPHSIPTPILIFRSP; Placental Immunoregulatory Ferritin (PLIF), C′, derived peptide C48) | bind similarly to the surface of human T cells | – | – | – | – | – | – | – | – | – | – | – | – | did not affect the INF-γ level; also recorded: no INF-γ | – | high level of IL-10; also recorded: high IL-10 levels | binds to the surface of human macrophages | prevented pregnancy development
